Laboratory results reported in US6136323A, “Bacterial plasmin receptors as fibrinolytic agents” (University of Florida Research Foundation, Inc., priority 1994, dated 2000).

Tests used:
[1] = test system: Mr 48,000 plasminogen activator protein from strain 64/14; experiment: Western blot probed with 125I-human plasmin in presence or absence of EACA; format: binding, group A streptococcus; conditions: addition of EACA (1.0 mM)
Experimental: (§1) Gels intended for Western blotting were equilibrated in 25 mM Tris, 0.2 M glycine pH 8.0 containing 20% v/v methanol (electroblot buffer) for 25 minutes. Protein blotting, from SDS-PAGE gels, was performed using the `Trans-Blot SD Semi-Dry` electrophoretic transfer cell (Bio Rad, Richmond, Calif.). Blots were blocked as described for the dot-blot procedure, and probed for 3-4 hours at room temperature with radiolabeled human plasmin in either the presence or absence of 1.0 mM EACA, to identify functionally active protein bands. In studies of antigenic properties of these proteins, blots were probed with rabbit anti-plasmin receptor antibody or anti-group C streptokinase antibody by incubation with […] IgG per ml of probing solution (approximately a 1:3000 dilution of antisera) for three hours and probed with ^125 I-streptococcal protein G containing 3×10^4 cpm/ml. For probing with mouse monoclonal antibodies specific for epitopes on group C streptokinase, blots were probed with a 1:100 dilution of the monoclonal antibody stock solution for three hours, followed by probing with goat antibody specific for mouse IgG at 1.0 μg/ml, followed by probing with ^125 I-streptococcal protein G containing 3×10^4 cpm/ml. Blots were then washed with 0.01 M EDTA pH 7.3, containing 1.0 M NaCl, 0.25% gelatin, 0.15% Tween 20. […]

[2] = test system: Mr ≈41,000 dalton plasmin binding protein of strain 64/14; experiment: as above; design: species or system group A streptococcus; conditions: 1.0 mM EACA
Experimental: as §1

[3] = biological target: binding of plasmin to the group A streptococcus 64/14; experiment: Inhibition of plasmin binding to bacteria by amino acids; conditions: pH 7.0, 37 C, 15 min, strain 64/14; read-out: concentration giving fifty percent inhibition of binding of plasmin to the bacteria
Experimental: Labeled plasmin (100 μl containing approximately 2×10^4 cpm) was added to 200 μl VBS-gel containing varying concentrations of epsilon-aminocaproic acid (EACA), lysine, or arginine, and incubated at 37 C for 15 min. The pH of each solution was 7.0. One hundred μl of VBS-gel containing 10^7 bacteria (strain 64/14) were then added and the mixture was incubated at 37 C for 15 min. The bacterial suspensions were centrifuged at 1000 g for 7 min and washed twice with 2 ml of VBS-gel containing the same concentration of amino acid present during the incubation period. The percent inhibition of binding was calculated for duplicate experiments by comparison with binding in VBS-gel alone.

group C streptokinase = experiment: Western blot probed with 125I-human plasmin in presence or absence of EACA; format: binding, group C streptococci; conditions: addition of EACA (1.0 mM)
Experimental: as §1

[4] = test system: plasmin prebound to the group A streptococcus; experiment: Dissociation of prebound plasmin from bacteria by amino acids; conditions: compared with concentration inhibiting binding by 50%
Experimental: The ability of EACA, lysine, or arginine to dissociate bound plasmin from the bacteria was examined in the following manner. Labeled plasmin was incubated with 10^7 bacteria in VBS-gel containing no amino acid at 37 C for 15 min. The bacteria were pelleted by centrifugation and washed twice with 2 ml on VBS-gel. After determining the radioactivity associated with the bacteria, the pellets were resuspended in solutions of VBS-gel containing varying concentrations of amino acid (pH 7.0) as described above. The mixtures were incubated at 37 C for 15 min and washed twice with VBS-gel containing the appropriate amino acid concentration. The radioactivity associated with the bacteria in duplicate experiments was again measured and the percentage dissociated was calculated.

[5] = test system: plasmin bound to strain 64/14; experiment: Preparative elution of bound labeled plasmin from strain 64/14 with lysine; format: binding, group A streptococcus; conditions: 20 mM lysine in VBS-gel, room temperature, 30 min
Experimental: Plasmin which had been bound to and eluted from strain 64/14 by treatment with lysine was also examined in similar binding studies. Eluted plasmin was obtained by incubating 2 ml of stock 10% wet weight/volume bacterial suspension (strain 64/14) with approximately 20 μg of labeled plasmin at room temperature for 45 min. This suspension was centrifuged at 1000 g for 10 min and washed once with 10 ml of VBS-gel, and the radioactivity associated with the bacterial pellet was measured. The pellet was then resuspended in VBS-gel containing 20 mM lysine and incubated at room temperature for 30 min. The suspension was centrifuged and the supernatant recovered. Approximately 90% of the radioactivity originally associated with the bacterial pellet was dissociated by the lysine treatment. The dissociated plasmin in the supernatant was the subjected to gel filtration of a G-25 column to separate lysine from plasmin. Fractions containing plasmin were collected and stored at -20 C.

[6] = test system: group A streptococcus 64/14; experiment: Effect of pH and ionic strength on binding of labeled plasmin(ogen) to bacteria
Experimental: To assess the effect of pH on the bacterium: plasmin (ogen) interaction, 50 μl of labeled plasminogen of plasmin (approximately 2×10^4 cpm) were added to 1.0 ml of VBS containing 0.05% Tween-20 adjusted to the appropriate pH. After 15 min at room temperature, 50 μl of VBS containing approximately 10^7 bacteria (strain 64/14) were added and the mixture was incubated at 37 C for 15 min. The bacterial suspensions were centrifuged at 1000 g for 7 min to separate bacteria from unbound labeled proteins and the pellets were washed twice with 2 ml of VBS at the appropriate pH. The radioactivity associated with the bacterial pellet in duplicate experiments was measured using a Beckman 5500 autogamma counter.
To assess the effect of ionic strength on the bacterium:plasmin (ogen) interaction, similar studies were carried out in solutions containing different concentrations of NaCl with 0.05% Tween-20. The bacterial pellets were washed in the appropriate NaCl concentration to remove unbound labeled proteins.

[7] = test system: group A streptococci strain 64/14; experiment: Effect of Ca2+ and Mg2+ on binding of radiolabeled plasmin to bacteria; design: species or system group A streptococcus; conditions: VBS-gel with 0.00015 M Ca2+ and 0.001 M Mg2+ vs metal free VBS-gel with 0.15 M EDTA
Experimental: Bindings of radiolabeled plasmin to group A streptococci strain 64/14 was studied in the following buffers: (1) VBS-gel containing 0.00015 M Ca^2+ and 0.001 M Mg^2+, or (2) metal free VBS-gel containing 0.15 M ethylenediaminetetraacetic acid (EDTA). In each case 400 μl of buffer was added to 100 μl of VBS-gel containing approximately 10^7 bacteria and 100 μl of VBS-gel containing 3×10^4 cpm of radiolabeled plasmin. After incubation at 37 C for 15 minutes, the mixtures were centrifuged at 1000 g for 7 min to separate bacteria from unbound radiolabel, the pellets were washed twice with 2 ml of the appropriate buffer, and radioactivity associated with the bacterial pellet in duplicate experiments was measured.

human plasmin = biological target: T1, human plasmin (Homo sapiens, UniProt P00747); experiment: Western blot probed with 125I-labeled human plasmin (plasmin binding activity); conditions: SDS-PAGE
T1 construct: from tissue
Experimental: PAGE and protein blotting. SDS-polyacrylamide gel electrophoresis (PAGE) was carried out with a 10% (wt/vol) polyacrylamide separating gel and a 4% (wt/vol) polyacrylamide stacking gel according to the method of Laemmli (Laemmli, U.K. [1970] Nature 227:680-685). Gels for Western blotting (immunoblotting) were equilibrated, and separated proteins were transferred by methods described previously (Broder et al. [1991], supra). For studies of plasmin binding, nitrocellulose membranes were blocked for 1 hour at room temperature in NET-gel buffer. The blots were then incubated for 2 hours at room temperature with ^125 I-human plasmin to identify plasmin-binding protein bands (Broder et al., supra). The blots were washed in NET-gel and subjected to autoradiography at -70 C.
Gels intended for Western blotting were equilibrated in 25 mM Tris, 0.2 M glycine pH 8.0 containing 20% v/v methanol (electroblot buffer) for 25 minutes. Protein blotting, from SDS-PAGE gels, was performed using the `Trans-Blot SD Semi-Dry` electrophoretic transfer cell (Bio Rad, Richmond, Calif.). Blots were blocked as described for the dot-blot procedure, and probed for 3-4 hours at room temperature with radiolabeled human plasmin in either the presence or absence of 1.0 mM EACA, to identify functionally active protein bands. […]

plasminogen = plasminogen (Homo sapiens, UniProt P00747); experiment: Plasminogen activator activity of separated proteins; format: biochemical
plasminogen, sequence (P00747 20-810 limits assumed): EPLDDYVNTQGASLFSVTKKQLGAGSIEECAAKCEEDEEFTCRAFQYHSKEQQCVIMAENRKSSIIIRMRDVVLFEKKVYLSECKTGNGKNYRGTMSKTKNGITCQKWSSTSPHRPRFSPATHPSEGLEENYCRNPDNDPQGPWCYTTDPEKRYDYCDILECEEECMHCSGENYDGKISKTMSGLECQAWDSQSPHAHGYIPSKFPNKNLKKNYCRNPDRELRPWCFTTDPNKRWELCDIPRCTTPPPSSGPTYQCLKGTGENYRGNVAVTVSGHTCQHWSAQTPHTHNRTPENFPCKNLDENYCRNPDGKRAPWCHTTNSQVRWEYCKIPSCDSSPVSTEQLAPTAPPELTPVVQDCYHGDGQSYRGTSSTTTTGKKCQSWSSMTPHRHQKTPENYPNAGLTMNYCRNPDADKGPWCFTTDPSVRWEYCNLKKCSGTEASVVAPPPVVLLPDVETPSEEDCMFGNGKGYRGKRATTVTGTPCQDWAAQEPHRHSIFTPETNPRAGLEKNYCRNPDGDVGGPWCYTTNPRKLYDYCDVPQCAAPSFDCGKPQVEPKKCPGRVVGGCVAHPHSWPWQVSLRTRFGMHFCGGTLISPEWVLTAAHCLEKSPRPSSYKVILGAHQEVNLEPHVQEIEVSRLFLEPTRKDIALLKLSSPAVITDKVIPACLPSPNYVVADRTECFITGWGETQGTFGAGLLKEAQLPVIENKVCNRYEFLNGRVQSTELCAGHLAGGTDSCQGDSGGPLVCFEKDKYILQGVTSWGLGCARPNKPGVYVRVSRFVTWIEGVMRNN

Molecule: NCCCCCC(=O)O [EACA, epsilon-aminocaproic acid]
- effect on binding of plasmin to the Mr 48,000 plasminogen activator protein from strain 64/14 [1]: no effect
- effect on binding of 125I-labeled human plasmin to the Mr ≈41,000 dalton protein in concentrated culture supernatant of strain 64/14 [2]: inhibited
- effect on plasmin binding activity of Mr ≈41,000 dalton band in the mutanolysin extract of strain 64/14 [2]: reduced significantly
- IC50 [3]: 150 µM
- effect on binding of plasmin to the reference group C streptokinase molecule (group C streptokinase): no effect
- concentration of amino acid required to elute 50% of the bound plasmin [4]: approximately equivalent

Molecule: N=C(N)NCCC[C@H](N)C(=O)O [arginine]
- IC50 [3]: 25000 µM
- concentration of amino acid required to elute 50% of the bound plasmin [4]: approximately equivalent

Molecule: NCCCC[C@H](N)C(=O)O [lysine]
- radioactivity originally associated with the bacterial pellet dissociated [5]: Approximately 90%
- IC50 [3]: 2000 µM
- concentration of amino acid required to elute 50% of the bound plasmin [4]: approximately equivalent

Molecule: plasminogen
- fraction bound to bacteria ([6]; 0.1 to 0.4 M NaCl): less than 10%
- direct binding of offered counts to the bacteria ([6]; entire pH range tested (pH 5-9)): less than 10%
- binding to the bacteria at low ionic strength ([6]; ionic strength below 0.075 M NaCl): significant binding

B1: plasmin: Human plasmin generated from radiolabeled plasminogen by incubation with urokinase (protein, UniProt P00747 20-580; P00747 581-810, looked up)
Plasmin heavy chain A: EPLDDYVNTQGASLFSVTKKQLGAGSIEECAAKCEEDEEFTCRAFQYHSKEQQCVIMAENRKSSIIIRMRDVVLFEKKVYLSECKTGNGKNYRGTMSKTKNGITCQKWSSTSPHRPRFSPATHPSEGLEENYCRNPDNDPQGPWCYTTDPEKRYDYCDILECEEECMHCSGENYDGKISKTMSGLECQAWDSQSPHAHGYIPSKFPNKNLKKNYCRNPDRELRPWCFTTDPNKRWELCDIPRCTTPPPSSGPTYQCLKGTGENYRGNVAVTVSGHTCQHWSAQTPHTHNRTPENFPCKNLDENYCRNPDGKRAPWCHTTNSQVRWEYCKIPSCDSSPVSTEQLAPTAPPELTPVVQDCYHGDGQSYRGTSSTTTTGKKCQSWSSMTPHRHQKTPENYPNAGLTMNYCRNPDADKGPWCFTTDPSVRWEYCNLKKCSGTEASVVAPPPVVLLPDVETPSEEDCMFGNGKGYRGKRATTVTGTPCQDWAAQEPHRHSIFTPETNPRAGLEKNYCRNPDGDVGGPWCYTTNPRKLYDYCDVPQCAAPSFDCGKPQVEPKKCPGR
Plasmin light chain B: VVGGCVAHPHSWPWQVSLRTRFGMHFCGGTLISPEWVLTAAHCLEKSPRPSSYKVILGAHQEVNLEPHVQEIEVSRLFLEPTRKDIALLKLSSPAVITDKVIPACLPSPNYVVADRTECFITGWGETQGTFGAGLLKEAQLPVIENKVCNRYEFLNGRVQSTELCAGHLAGGTDSCQGDSGGPLVCFEKDKYILQGVTSWGLGCARPNKPGVYVRVSRFVTWIEGVMRNN
modifications: Plasmin radiolabeled
notes: Human plasmin generated from radiolabeled plasminogen by incubation with urokinase
- counts offered being bound by the group A streptococcus 64/14 ([6]; maximal binding, between pH 5 and 8, about 10^7 bacteria, 37 C, 15 min): approximately 60%
- amount bound by the bacteria, effect of divalent cations [7]: the same in the presence or absence of divalent cations

B2: plasmin receptor: Mr ≈41,000 dalton plasmin binding protein extracted with mutanolysin from group A streptococcal strain 64/14 (protein)
chain: MVVKVGINGFGRIGRLAFRRIQNIEGVEVTRINDLTDPNMLAHLLKYDTTQGRFDGTVEVKEGGFEVNGNFIKVSAERDPENIDWATDGVEIVLEATGFFAKKEAAEKHLHANGAKKVVITAPGGNDVKTVVFNTNHDILDGTETVISGASCTTNCLAPMAKALHDAFGIQKGLMTTIHAYTGDQMILDGPHRGGDLRRARAGAANIVPNSTGAAKAIGLVIPELNGKLDGAAQRVPVPTGSVTELVVTLDKNVSVDEINSAMKAASNDSFGYTEDPIVSSDIVGVSYGSLFDATQTKVMEVDGSQLVKVVSWYDNEMSYTAQLVRTLEYFAKIAK
- binding of 125I-labeled human plasmin on blot (human plasmin): capable of binding to human plasmin
- binding of 125I-labeled human plasmin on blot (human plasmin; listed as Mr ≈41,000 dalton protein): retained fractional plasmin binding activity
- plasminogen activating potential (plasminogen; affinity purified protein): lacked any plasminogen activating potential
- plasminogen activator activity (plasminogen; extracted (mutanolysin) preparation from strain 64/14): no plasminogen activator activity
